Laboratory results from ChEMBL document CHEMBL1156829 (Proc Natl Acad Sci U S A, 2008).

What was measured:
Plasmodium falciparum [1] = assay: NOVARTIS: Inhibition of Plasmodium falciparum W2 (drug-resistant) proliferation in erythrocyte-based infection assay; format: functional, organism-based; conditions: Plasmodium falciparum, W2; read-out: EC50
[2] = NOVARTIS: Cytotoxicity against human hepatocellular carcinoma cell line (Huh7); format: toxicity, cell-based, Huh-7; conditions: Huh7 cells (hepatocellular carcinoma cell line)
Plasmodium falciparum [3] = assay: NOVARTIS: Inhibition of Plasmodium falciparum 3D7 (drug-susceptible) proliferation in erythrocyte-based infection assay; format: functional, organism-based; conditions: Plasmodium falciparum, 3D7

SMILES	EC50 (Plasmodium falciparum [1]) [nM]	CC50 [2] [µM]	EC50 (Plasmodium falciparum [3]) [nM]
CCCCCCCCCCCC(OC(=O)C(CCCCN(O)C(C)=O)NC(=O)c1coc(-c2ccccc2O)n1)C(C)C(=O)NC1CCCCN(O)C1=O (configuration not stated) [NOCARDIMICIN B]	2.24	> 10	> 864
Cc1cccc(NC2=NC(N)=NC(C)(C)N2)c1	312	> 10	57.6
Clc1nc(Nc2ccccc2)nc(N2CCCCC2)n1	381	48.3	> 12500
O=C(CN1C(=O)c2ccccc2C1=O)Nc1cc(Cl)ccc1C(=O)O	486	> 10	> 1250
O=C(Nc1ccc(-n2cccn2)cc1)C1CCN(CC=Cc2ccccc2)CC1	344	> 99.8	887
CCOc1ccc(NC(=O)c2ccc(F)c(S(=O)(=O)NC3CCCC(C)C3C)c2)cc1 (configuration not stated)	178	32.2	1040
O=C(Nc1nc(-c2ccccn2)cs1)c1ccc(Oc2ccc(C(=O)Nc3nc(-c4ccccn4)cs3)cc2)cc1	602	> 100	2240
CCN1/C(=C/c2sc3ccc(OC)cc3[n+]2CC)C=Cc2cc(OC)ccc21	552	> 10	527
O=C(CCl)Nc1ccc(S(=O)(=O)OCC(F)(F)C(F)F)cc1	1580	17.1	1730
CCN1/C(=C\C=C2/SC(=S)N(c3ccccc3)C2=O)C(C)(C)c2cc(-c3ccccc3)ccc21	318	> 8.66	128
CC1CN(C2CC(=O)N(c3ccccc3)C2=O)CC(C)O1 (configuration not stated)	> 195	> 10	873
CCOC(=O)c1c(NC(=O)C(C)Sc2ncnc3c2oc2ccccc23)sc2c1CCC2 (configuration not stated)	2900	> 100	> 8810
O=C1C(NC2CCCCC2)=C(N2CCOCC2)C(=O)c2ccccc21	116	46.1	139
c1ccc2c(NCCNc3c4ccccc4nc4ccccc34)c3ccccc3nc2c1	858	11.8	82.9
COc1cc(NC(=O)Cc2ccccc2OC)cc(OC)c1	> 386	> 10	> 1690
CCCNC1=C(c2ccc(OC)cc2)C(=O)c2ccccc21	754	> 100	3380
Cc1nc2c(C)c(-c3ccccc3)nn2c(O)c1C	2080	> 100	1020

SMILES	EC50 (Plasmodium falciparum [1]) [nM]	CC50 [2] [µM]	EC50 (Plasmodium falciparum [3]) [nM]
CN1CCCC1CCNc1ncc(C(=O)NCc2ccccc2)c(NC2CCCC2)n1 (configuration not stated)	> 1250	> 10	658
CCOC(=O)C1=C(C)NC2=C(C(=O)CC(c3ccc(Cl)cc3)C2)C1c1ccc(Br)cc1 (configuration not stated)	116	> 100	378
CCOC(=O)C1=C(C)NC2=C(C(=O)CC(c3ccc(OC)c(OC)c3)C2)C1c1cccc(Cl)c1Cl (configuration not stated)	30.5	> 100	32.9
CCOc1c(Cl)cc(CNC(C)C(O)c2ccccc2)cc1OC (configuration not stated)	427	> 10	1650
CCCCNC(=S)N(Cc1cccs1)Cc1cc2cc(C)ccc2[nH]c1=O	295	> 10	1020
Brc1ccc(Nc2nc(NCC3CCCO3)c3ccccc3n2)cc1 (configuration not stated)	349	9.78	468
Cc1c(-c2ccc(Cl)cc2)[n+]2c(n1-c1ccccc1)SCCC2	1040	> 100	1150
Nc1nc(N)c2c(OCc3ccc(C(F)(F)F)cc3)cccc2n1	972	> 10	782
O=C(Nc1ccc([N+](=O)[O-])cc1Cl)c1cc(Br)ccc1O	798	55.6	> 12500
Cc1c(Cl)cccc1NC(=O)CCC(=O)NNC(=O)c1ccccc1	> 1250	> 10	> 1010
CC(C)(C)c1nn(-c2ccc(Cl)cc2)c2[nH]c(=O)c(CNCc3ccc(Cl)cc3)cc12	129	> 100	351
COc1ccc2nc(C)cc(Nc3ccc(Br)cc3)c2c1	369	19.7	201
COc1cccc(CNc2ncnc3sc(C(=O)NCC4COCCO4)c(C)c23)c1OC (configuration not stated)	3500	> 100	> 12500
COc1ccccc1N(CN1C(=O)c2ccc(Br)cc2C1=O)C(C)=O	> 171	> 10	> 1250
O=C(NCCCCNc1ccnc2cc(Cl)ccc12)c1cc(C(F)(F)F)cc(C(F)(F)F)c1	766	> 10	642
CN(CCCNc1ccnc2cc(Cl)ccc12)S(=O)(=O)c1cccc2cccnc12	249	> 10	188
CCCCCCN(C(=O)c1ccc2ccccc2c1)C(CC)c1nc2ccccc2c(=O)n1-c1ccc(F)cc1 (configuration not stated)	548	> 10	454
